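Values below derive from 48-hour exposures of cells grown in 96-well plates, with endpoints linearly interpolated between the two concentrations bracketing the appropriate inhibition level. Here, GI50 denotes the concentration required for 50% inhibition of growth. At the TGI there is no net growth.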 *1 amine or outer side, *2 acyl side, *3 side chain or, on linkers, in order; H or OH if unused. Where a SMILES comes first, the peptide text is derived from it. Bridges are numbered along the chain shown (N, C = ends). [ ]: non-standard residue; d: D form. The star is where a group is joined. Phe(3,5-F2) = N[C@@H](Cc1cc(F)cc(F)c1)C(=O)O; Pro(4R-Me) = C[C@H]1CN[C@H](C(=O)O)C1; aThr = C[C@H](O)[C@H](N)C(=O)O; Pip = O=C(O)[C@@H]1CCCCN1; X10 = Fc1cc(C2CC2)ccc1N*; Abu = CC[C@H](N)C(=O)O; CO = O=C([*:1])[*:2]
Legend:
Experiment in all cases: inhibition of tumour cell growth, NCI panel, 48 h
[1] = test system: MDA-MB-435
[2] = test system: TK-10 renal
[3] = test system: M14 melanoma
[4] = test system: K-562 leukemia
[5] = test system: SK-MEL-28 melanoma
[6] = test system: NCI-H226 lung
[7] = test system: SNB-75 CNS
[8] = test system: ACHN renal
[9] = test system: IGROV1 ovarian
[10] = test system: NCI-H522 lung
[11] = test system: A549 NSCLC
[12] = test system: OVCAR-8 ovarian
[13] = test system: SW-620 colon
[14] = test system: DU-145 prostate
[15] = test system: MALME-3M melanoma
[16] = test system: SK-MEL-5 melanoma
[17] = test system: UO-31 renal
[18] = test system: SK-MEL-2 melanoma
[19] = test system: CAKI-1 renal
[20] = test system: HOP-92 NSCLC
[21] = test system: LOX IMVI melanoma
[22] = test system: NCI-H460 lung
[23] = test system: RXF 393 renal
[24] = test system: NCI/ADR-RES ovarian
[25] = test system: KM12 colon
[26] = test system: UACC-257 melanoma
[27] = test system: MOLT-4 leukemia
[28] = test system: NCI-H23 lung
[29] = test system: HCT-116 colon
[30] = test system: HOP-62 NSCLC
[31] = test system: BT-549 breast
[32] = test system: CCRF-CEM leukemia
[33] = test system: SF-268 CNS
[34] = test system: PC-3 prostate
[35] = test system: OVCAR-4 ovarian
[36] = test system: RPMI-8226 leukemia
[37] = test system: T-47D breast
[38] = test system: SF-539 CNS
[39] = test system: MDA-MB-231 breast
[40] = test system: 786-0 renal
[41] = test system: HT29 colon
[42] = test system: U251 CNS
[43] = test system: A498 renal
[44] = test system: HS 578T breast
[45] = test system: OVCAR-5 ovarian
[46] = test system: EKVX NSCLC
[47] = test system: UACC-62 melanoma
[48] = test system: HL-60(TB) leukemia
[49] = test system: COLO 205 colon
[50] = test system: SN12C renal
[51] = test system: OVCAR-3 ovarian
[52] = test system: SK-OV-3 ovarian
[53] = test system: SF-295 CNS
[54] = test system: HCT-15 colon
[55] = test system: HCC-2998 colon
[56] = test system: SR leukemia
[57] = test system: MCF7 breast
[58] = test system: SNB-19 CNS

## CC[C@@H]1NC(=O)[C@@H]2CCCCN2C(=O)[C@@H]2CCCN2C(=O)[C@@H](NC(=O)[C@H](Cc2cc(F)cc(F)c2)NC(=O)Nc2ccc(C3CC3)cc2F)[C@H](C)OC(=O)[C@@H]2C[C@@H](C)CN2C1=O ({X10-CO}-[Phe(3,5-F2)][aThr]P[Pip][Abu][Pro(4R-Me)]; ester 2-C)
[1]
  GI50: 49 nM
  TGI: 1720 nM
[2]
  GI50: 954 nM
  TGI: > 39100 nM
[3]
  GI50: 50.1 nM
  TGI: 1860 nM
[4]
  GI50: 39.1 nM
  TGI: > 100000 nM
[5]
  GI50: 178 nM
  TGI: 2420 nM
[6]
  GI50: 63.2 nM
  TGI: 2570 nM
[7]
  GI50: 66.7 nM
  TGI: 6190 nM
[8]
  GI50: 237 nM
  TGI: 6840 nM
[9]
  GI50: 223 nM
  TGI: > 36700 nM
[10]
  GI50: 56 nM
  TGI: 8480 nM
[11]
  GI50: 62.5 nM
  TGI: > 65000 nM
[12]
  GI50: 42.7 nM
  TGI: > 100000 nM
[13]
  GI50: 67.9 nM
  TGI: > 43200 nM
[14]
  GI50: 59.3 nM
  TGI: > 100000 nM
[15]
  GI50: 108 nM
  TGI: 2930 nM
[16]
  GI50: 59.2 nM
  TGI: 1210 nM
[17]
  GI50: 326 nM
  TGI: 9470 nM
[18]
  GI50: 90.2 nM
  TGI: 2570 nM
[19]
  GI50: 54.7 nM
  TGI: 7250 nM
[20]
  GI50: 54.7 nM
  TGI: 4060 nM
[21]
  GI50: 74.8 nM
  TGI: 4380 nM
[22]
  GI50: 45.9 nM
  TGI: 2620 nM
[23]
  GI50: 419 nM
  TGI: 2790 nM
[24]
  GI50: 505 nM
  TGI: > 38100 nM
[25]
  GI50: 258 nM
  TGI: 3860 nM
[26]
  GI50: 48.3 nM
  TGI: 6260 nM
[27]
  GI50: 271 nM
  TGI: > 30000 nM
[28]
  GI50: 65.9 nM
  TGI: > 28600 nM
[29]
  GI50: 42.7 nM
  TGI: 1610 nM
[30]
  GI50: 65.8 nM
  TGI: > 86200 nM
[31]
  GI50: 90.5 nM
[32]
  GI50: 60.3 nM
  TGI: > 100000 nM
[33]
  GI50: 59.1 nM
  TGI: > 49600 nM
[34]
  GI50: 39.6 nM
  TGI: 13000 nM
[35]
  GI50: 37.2 nM
  TGI: 3260 nM
[36]
  GI50: 32.3 nM
  TGI: 1670 nM
[37]
  GI50: 62.7 nM
  TGI: 8160 nM
[38]
  GI50: 137 nM
  TGI: 2460 nM
[39]
  GI50: 44.7 nM
  TGI: 1500 nM
[40]
  GI50: 205 nM
  TGI: 15800 nM
[41]
  GI50: 70.9 nM
  TGI: 5490 nM
[42]
  GI50: 52.4 nM
  TGI: > 56600 nM
[43]
  GI50: 32 nM
  TGI: 1060 nM
[44]
  GI50: 83 nM
  TGI: 4980 nM
[45]
  GI50: 67.9 nM
  TGI: 2630 nM
[46]
  GI50: 76.7 nM
  TGI: > 100000 nM
[47]
  GI50: 81.3 nM
  TGI: 2700 nM
[48]
  GI50: 39.9 nM
  TGI: 1650 nM
[49]
  GI50: 39.7 nM
  TGI: 1290 nM
[50]
  GI50: 42.9 nM
  TGI: > 33800 nM
[51]
  GI50: 46.3 nM
  TGI: 2030 nM
[52]
  GI50: 64.2 nM
  TGI: 9830 nM
[53]
  GI50: 55.2 nM
  TGI: 1540 nM
[54]
  GI50: 220 nM
  TGI: 2250 nM
[55]
  GI50: 61.9 nM
  TGI: 1620 nM
[56]
  GI50: 115 nM
  TGI: 3380 nM
[57]
  GI50: 43.7 nM
  TGI: 14900 nM
[58]
  GI50: 44.3 nM
  TGI: > 56500 nM
